These results are taken from patent publication US8895504B2, “Amylin derivatives” (priority 2008, dated 2014).

*1 amine or outer side, *2 acyl side, *3 side chain or, on linkers, in order; H or OH if unused. Where a SMILES comes first, the peptide text is derived from it. Bridges are numbered along the chain shown (N, C = ends). The star is where a group is joined. C20 diacid = O=C(O)CCCCCCCCCCCCCCCCCCC(=O)*; γGlu = O=C(O)[C@H](CCC(=O)[*:2])N[*:1]; GABA = NCCCC(=O)O

In this assay the target is T1, Amylin 3(a) receptor (human calcitonin receptor (CTa) and RAMP-3) (Homo sapiens, UniProt O60896+P30988).
T1 construct: expressed in transfected cells; host or cells: BHK570 cells, stably transfected with a CRE-luciferase reporter
T1 sequence (O60896 24-148): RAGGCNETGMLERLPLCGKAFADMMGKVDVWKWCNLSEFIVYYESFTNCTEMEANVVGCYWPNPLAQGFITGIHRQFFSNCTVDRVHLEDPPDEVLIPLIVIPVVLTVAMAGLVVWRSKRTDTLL
T1 sequence (P30988 25-474): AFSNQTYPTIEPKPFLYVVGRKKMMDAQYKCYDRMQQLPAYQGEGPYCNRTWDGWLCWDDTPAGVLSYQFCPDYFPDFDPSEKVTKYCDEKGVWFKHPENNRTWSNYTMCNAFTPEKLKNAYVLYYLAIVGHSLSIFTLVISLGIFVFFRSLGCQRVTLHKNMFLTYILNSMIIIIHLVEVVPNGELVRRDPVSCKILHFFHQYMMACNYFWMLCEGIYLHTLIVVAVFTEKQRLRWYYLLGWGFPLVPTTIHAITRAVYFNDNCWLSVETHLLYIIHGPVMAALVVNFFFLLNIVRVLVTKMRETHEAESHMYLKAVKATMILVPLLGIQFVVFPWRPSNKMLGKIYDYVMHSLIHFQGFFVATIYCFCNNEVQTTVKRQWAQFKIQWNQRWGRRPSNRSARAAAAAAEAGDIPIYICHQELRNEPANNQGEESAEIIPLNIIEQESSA
The assay can be described thus: Luciferase assay (III), BHK Amylin 3(a)//CRE-luc cells. Conditions: BHK cells with Amylin 3(a) receptor and CRE luciferase reporter, 4 hours incubation; read-out: Potency Luciferase. The assay is classed as cell-based. In a few lines: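 BHK570 cells stably expressing CTa, RAMP-3 and a CRE-luciferase reporter, seeded at about 20,000 cells/well and grown overnight. Cells were exposed to standard or sample for 4 h at 37° C in phenol red-free DMEM with 10% FBS and 10 mM Hepes, pH 7,4. Luminescence was read after 30 min LucLite at room temperature.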

`CC[C@H](C)[C@H](NC(=O)[C@@H]1CCCN1C(=O)CNC(=O)[C@H](Cc1ccccc1)NC(=O)[C@H](CC(N)=O)NC(=O)[C@H](CC(N)=O)NC(=O)[C@H](CO)NC(=O)[C@H](CO)NC(=O)[C@H](Cc1c[nH]cn1)NC(=O)[C@H](Cc1c[nH]cn1)NC(=O)[C@H](CC(C)C)NC(=O)[C@H](Cc1ccccc1)NC(=O)[C@H](CC(N)=O)NC(=O)[C@H](C)NC(=O)[C@H](CC(C)C)NC(=O)[C@H](CCCNC(=N)N)NC(=O)[C@H](CCC(N)=O)NC(=O)[C@@H](NC(=O)[C@H](C)NC(=O)[C@@H]1CSSC[C@H](NC(=O)[C@H](CCCNC(=N)N)NC(=O)CC[C@H](NC(=O)CCCCCCCCCCCCCCCCCCC(=O)O)C(=O)O)C(=O)N[C@@H](CC(N)=O)C(=O)N[C@@H]([C@@H](C)O)C(=O)N[C@@H](C)C(=O)N[C@@H]([C@@H](C)O)C(=O)N1)[C@@H](C)O)C(=O)N[C@@H](CC(C)C)C(=O)N1CCC[C@H]1C(=O)N1CCC[C@H]1C(=O)N[C@H](C(=O)N[C@@H](CC(N)=O)C(=O)N[C@H](C(=O)NCC(=O)N[C@@H](CO)C(=O)N[C@@H](CC(N)=O)C(=O)N[C@H](C(=O)N[C@@H](Cc1ccc(O)cc1)C(N)=O)[C@@H](C)O)C(C)C)[C@@H](C)O` [Example 6, N-alpha-[(S)-4-Carboxy-4-(19-carboxynonadecanoylamino)butyryl]-[Arg1,His17]-pramlintide] ({C20 diacid-γGlu}-RCNTATCATQRLANFLHHSSNNFGPILPPTNVGSNTY-NH2; disulfide 2-7): the EC50 was found to be 0.3 nM.

In the case of `CC[C@H](C)[C@H](NC(=O)[C@@H]1CCCN1C(=O)CNC(=O)[C@H](Cc1ccccc1)NC(=O)[C@H](CC(N)=O)NC(=O)[C@H](CC(N)=O)NC(=O)[C@H](CO)NC(=O)[C@H](CO)NC(=O)[C@H](Cc1c[nH]cn1)NC(=O)[C@H](CCCNC(=N)N)NC(=O)[C@H](CC(C)C)NC(=O)[C@H](Cc1ccccc1)NC(=O)[C@H](CC(N)=O)NC(=O)[C@H](C)NC(=O)[C@H](CC(C)C)NC(=O)[C@H](CCCNC(=N)N)NC(=O)[C@H](CCC(N)=O)NC(=O)[C@@H](NC(=O)[C@H](C)NC(=O)[C@@H]1CSSC[C@H](NC(=O)[C@H](CCCCN)NC(=O)[C@H](CCCNC(=N)N)NC(=O)CCCNC(=O)CCCCCCCCCCCCCCCCCCC(=O)O)C(=O)N[C@@H](CC(N)=O)C(=O)N[C@@H]([C@@H](C)O)C(=O)N[C@@H](C)C(=O)N[C@@H]([C@@H](C)O)C(=O)N1)[C@@H](C)O)C(=O)N[C@@H](CC(C)C)C(=O)N1CCC[C@H]1C(=O)N1CCC[C@H]1C(=O)N[C@H](C(=O)N[C@@H](CC(N)=O)C(=O)N[C@H](C(=O)NCC(=O)N[C@@H](CO)C(=O)N[C@@H](CC(N)=O)C(=O)N[C@H](C(=O)N[C@@H](Cc1ccc(O)cc1)C(N)=O)[C@@H](C)O)C(C)C)[C@@H](C)O` [Example 25, N-alpha-[4-(19-Carboxynonadecanoylamino)butyryl]-Arg-[Arg17]-pramlintide] ({C20 diacid-GABA}-RKCNTATCATQRLANFLRHSSNNFGPILPPTNVGSNTY-NH2; disulfide 3-8), the EC50 was 0.03 nM.

As to `CC[C@H](C)[C@H](NC(=O)[C@@H]1CCCN1C(=O)CNC(=O)[C@H](Cc1ccccc1)NC(=O)[C@H](CC(N)=O)NC(=O)[C@H](CC(N)=O)NC(=O)[C@H](CO)NC(=O)[C@H](CO)NC(=O)[C@H](Cc1c[nH]cn1)NC(=O)CNC(=O)[C@H](CC(C)C)NC(=O)[C@H](Cc1ccccc1)NC(=O)[C@H](CC(N)=O)NC(=O)[C@H](C)NC(=O)[C@H](CC(C)C)NC(=O)[C@H](CCCNC(=N)N)NC(=O)[C@H](CCC(N)=O)NC(=O)[C@@H](NC(=O)[C@H](C)NC(=O)[C@@H]1CSSC[C@H](NC(=O)CC[C@H](NC(=O)CCCCCCCCCCCCCCCCCCC(=O)O)C(=O)O)C(=O)N[C@@H](CC(N)=O)C(=O)N[C@@H]([C@@H](C)O)C(=O)N[C@@H](C)C(=O)N[C@@H]([C@@H](C)O)C(=O)N1)[C@@H](C)O)C(=O)N[C@@H](CC(C)C)C(=O)N1CCC[C@H]1C(=O)N1CCC[C@H]1C(=O)N[C@H](C(=O)N[C@@H](CC(N)=O)C(=O)N[C@H](C(=O)NCC(=O)N[C@@H](CO)C(=O)N[C@@H](CC(N)=O)C(=O)N[C@H](C(=O)N[C@@H](Cc1ccc(O)cc1)C(N)=O)[C@@H](C)O)C(C)C)[C@@H](C)O` [Example 13, N-alpha-[(S)-4-Carboxy-4-(19-carboxynonadecanoylamino)butyryl]-[Gly17]-pramlintide (2-37)] ({C20 diacid-γGlu}-CNTATCATQRLANFLGHSSNNFGPILPPTNVGSNTY-NH2; disulfide 1-6), the EC50 was determined as 0.4 nM.

Regarding `CC[C@H](C)[C@H](NC(=O)[C@@H]1CCCN1C(=O)CNC(=O)[C@H](Cc1ccccc1)NC(=O)[C@H](CC(N)=O)NC(=O)[C@H](CC(N)=O)NC(=O)[C@H](CO)NC(=O)[C@H](CO)NC(=O)[C@H](Cc1c[nH]cn1)NC(=O)[C@H](CCCNC(=N)N)NC(=O)[C@H](CC(C)C)NC(=O)[C@H](Cc1ccccc1)NC(=O)[C@H](CC(N)=O)NC(=O)[C@H](C)NC(=O)[C@H](CC(C)C)NC(=O)[C@H](CCCNC(=N)N)NC(=O)[C@H](CCC(N)=O)NC(=O)[C@@H](NC(=O)[C@H](C)NC(=O)[C@@H]1CSSC[C@H](NC(=O)[C@H](Cc2c[nH]cn2)NC(=O)CC[C@H](NC(=O)CCCCCCCCCCCCCCCCCCC(=O)O)C(=O)O)C(=O)N[C@@H](CC(N)=O)C(=O)N[C@@H]([C@@H](C)O)C(=O)N[C@@H](C)C(=O)N[C@@H]([C@@H](C)O)C(=O)N1)[C@@H](C)O)C(=O)N[C@@H](CC(C)C)C(=O)N1CCC[C@H]1C(=O)N1CCC[C@H]1C(=O)N[C@H](C(=O)N[C@@H](CC(N)=O)C(=O)N[C@H](C(=O)NCC(=O)N[C@@H](CO)C(=O)N[C@@H](CC(N)=O)C(=O)N[C@H](C(=O)N[C@@H](Cc1ccc(O)cc1)C(N)=O)[C@@H](C)O)C(C)C)[C@@H](C)O` [Example 36, N-alpha-[(S)-4-Carboxy-4-(19-carboxynonadecanoylamino)butyryl]-[His1,Arg17]-pramlintide] ({C20 diacid-γGlu}-HCNTATCATQRLANFLRHSSNNFGPILPPTNVGSNTY-NH2; disulfide 2-7), the EC50 came out at 0.1 nM.

Turning to `CC[C@H](C)[C@H](NC(=O)[C@@H]1CCCN1C(=O)CNC(=O)[C@H](Cc1ccccc1)NC(=O)[C@H](CC(N)=O)NC(=O)[C@H](CC(N)=O)NC(=O)[C@H](CO)NC(=O)[C@H](CO)NC(=O)[C@H](Cc1c[nH]cn1)NC(=O)[C@H](Cc1c[nH]cn1)NC(=O)[C@H](CC(C)C)NC(=O)[C@H](Cc1ccccc1)NC(=O)[C@H](CC(N)=O)NC(=O)[C@H](C)NC(=O)[C@H](CC(C)C)NC(=O)[C@H](CCCNC(=N)N)NC(=O)[C@H](CCC(N)=O)NC(=O)[C@@H](NC(=O)[C@H](C)NC(=O)[C@@H]1CSSC[C@H](NC(=O)[C@H](CCCNC(=N)N)NC(=O)[C@H](Cc2c[nH]cn2)NC(=O)[C@H](Cc2c[nH]cn2)NC(=O)[C@H](CCC(=O)O)NC(=O)CC[C@H](NC(=O)CCCCCCCCCCCCCCCCCCC(=O)O)C(=O)O)C(=O)N[C@@H](CC(N)=O)C(=O)N[C@@H]([C@@H](C)O)C(=O)N[C@@H](C)C(=O)N[C@@H]([C@@H](C)O)C(=O)N1)[C@@H](C)O)C(=O)N[C@@H](CC(C)C)C(=O)N1CCC[C@H]1C(=O)N1CCC[C@H]1C(=O)N[C@H](C(=O)N[C@@H](CC(N)=O)C(=O)N[C@H](C(=O)NCC(=O)N[C@@H](CO)C(=O)N[C@@H](CC(N)=O)C(=O)N[C@H](C(=O)N[C@@H](Cc1ccc(O)cc1)C(N)=O)[C@@H](C)O)C(C)C)[C@@H](C)O` [Example 67, N-alpha-[(S)-4-Carboxy-4-(19-carboxynonadecanoylamino)butyryl]-Glu-His-His-[Arg1,His17]-pramlintide] ({C20 diacid-γGlu}-EHHRCNTATCATQRLANFLHHSSNNFGPILPPTNVGSNTY-NH2; disulfide 5-10), the EC50 came to 0.1 nM.

With `CC[C@H](C)[C@H](NC(=O)[C@@H]1CCCN1C(=O)CNC(=O)[C@H](Cc1ccccc1)NC(=O)[C@H](CC(N)=O)NC(=O)[C@H](CC(N)=O)NC(=O)[C@H](CO)NC(=O)[C@H](CO)NC(=O)[C@H](Cc1c[nH]cn1)NC(=O)[C@H](CCCNC(=N)N)NC(=O)[C@H](CC(C)C)NC(=O)[C@H](Cc1ccccc1)NC(=O)[C@H](CC(N)=O)NC(=O)[C@H](C)NC(=O)[C@H](CC(C)C)NC(=O)[C@H](CCCNC(=N)N)NC(=O)[C@H](CCC(N)=O)NC(=O)[C@@H](NC(=O)[C@H](C)NC(=O)[C@@H]1CSSC[C@H](NC(=O)[C@H](Cc2c[nH]cn2)NC(=O)[C@H](Cc2c[nH]cn2)NC(=O)CC[C@H](NC(=O)CCCCCCCCCCCCCCCCCCC(=O)O)C(=O)O)C(=O)N[C@@H](CC(N)=O)C(=O)N[C@@H]([C@@H](C)O)C(=O)N[C@@H](C)C(=O)N[C@@H]([C@@H](C)O)C(=O)N1)[C@@H](C)O)C(=O)N[C@@H](CC(C)C)C(=O)N1CCC[C@H]1C(=O)N1CCC[C@H]1C(=O)N[C@H](C(=O)N[C@@H](CC(N)=O)C(=O)N[C@H](C(=O)NCC(=O)N[C@@H](CO)C(=O)N[C@@H](CC(N)=O)C(=O)N[C@H](C(=O)N[C@@H](Cc1ccc(O)cc1)C(N)=O)[C@@H](C)O)C(C)C)[C@@H](C)O` [Example 35, N-alpha-[(S)-4-Carboxy-4-(19-carboxynonadecanoylamino)butyryl]-His-[His1,Arg17]-pramlintide] ({C20 diacid-γGlu}-HHCNTATCATQRLANFLRHSSNNFGPILPPTNVGSNTY-NH2; disulfide 3-8), the EC50 was found to be 0.1 nM.
